Measured values reported in publication PMC10138554, “Insights into the Microbicidal, Antibiofilm, Antioxidant and Toxicity Profile of New O-Aryl-Carbamoyl-Oxymino-Fluorene Derivatives” (International Journal of Molecular Sciences, 2023).
Converted amounts (≈) assume the structure as drawn.

Columns and labels:
E. coli ATCC 25922 = experiment: MBC assay, plating on solid medium after MIC reading; type: cell-based; details: Escherichia coli, ATCC25922, read-out: minimum bactericidal concentration (MBC)
Method: (§1) The inhibitory activity of the obtained compounds has been assessed on five microbial strains, respectively: E. coli ATCC 25922, P. aeruginosa ATCC 27853, S. aureus ATCC 25923, E. faecalis ATCC 29212 and C. albicans ATCC 90029, in a planktonic and adherent growth state.
(§2) The MB assay was performed after reading the MIC values.

P. aeruginosa ATCC 27853 = experiment: as above; type: cell-based; details: Pseudomonas aeruginosa, ATCC27853, read-out: minimum bactericidal concentration (MBC)
Method: as §1, §2

[1] = Toxicity on the Artemia franciscana Kellog crustacean species (lethality of nauplii); type: in vivo; details: Artemia franciscana Kellog (brine shrimp nauplii), in vivo, other: nauplii placed in contact with the test suspensions, four-parameter logistic model
Method: The oocysts (Great Salt Lake, USA) provided by S.K. Trading were grown on artificial seawater medium (Coral Marine, Grotech), dissolved in distilled water with a few minutes of sonication, at 30 g/L concentration. The test was carried out in a 24-well plate, using three replicates. Because of their low solubility, the compounds 1a–d were suspended in the culture medium using sodium alginate (0.045%) (also used a negative control), the testing being carried out at the solubility limit. The concentrations 100, 50, 25, 12.5 and 6.2 μg/mL used for each substance were obtained by successive dilutions starting from the initial suspension. Between 10 and 15 nauplii per well were collected and placed in contact with the test suspensions (1.5 mL/well). All nauplii, dead or alive, were counted and recorded within 24 h of being placed in contact with the tested suspensions. The non-linear modeling of the concentration-lethality relationship was achieved through a four-parameter logistics model (4PL), implemented in several robust variants for estimating parameters in the R package “dr4pl” [78].

Structure (SMILES) | MBC (E. coli ATCC 25922) [µg/mL] | MBC (P. aeruginosa ATCC 27853) [µg/mL] | LC50 at 24 h [1] [µg/mL]
O=C(Nc1ccccc1)ON=C1c2ccccc2-c2ccccc21 [Compound 1a, 9-(phenylcarbamoyloxymino)fluoren] | 2500 (≈ 7.95 mM) | 2500 (≈ 7.95 mM) | 
Cc1cccc(NC(=O)ON=C2c3ccccc3-c3ccccc32)c1 [Compound 1b, 9-((3-methyl-phenyl)carbamoyloximino)fluoren] | 5000 (≈ 15.2 mM) | 2500 (≈ 7.61 mM) | 
O=C(Nc1cccc(Cl)c1)ON=C1c2ccccc2-c2ccccc21 [Compound 1c, 9-((3-chloro-phenyl)carbamoyloxymino)fluoren] | 5000 (≈ 14.3 mM) | 2500 (≈ 7.17 mM) | 
O=C(Nc1ccc(Cl)c(Cl)c1)ON=C1c2ccccc2-c2ccccc21 [Compound 1d, 9-((3,4-dichloro-phenyl)carbamoyloxymino)fluoren] | 5000 (≈ 13 mM) | 2500 (≈ 6.52 mM) | 14.6 (≈ 0.0382 mM)
